In the supplement of paper PMC10307832:

What was measured:
Test in all cases: relative viability (nuclei count vs DMSO), 5 days (fraction); higher = more cells survive
[1] = compound: C1/C(=C\C2=CC=CS2)/C(=O)/C(=C/C3=CC=CS3)/C1 + C[C@@H](Oc1cc(-c2cnn(C3CCNCC3)c2)cnc1N)c1c(Cl)ccc(F)c1Cl [Crizotinib] (partner 1 µM)
How it was run: (§1)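 Cells from lung cancer lines were seeded into 1536-well plates and, one day later, dosed by pin tool. Treatments were either a single drug or a fixed dose of an anchor drug with five library-drug doses (not always all listed) in √10 steps. After 5 days, nuclei were stained in a one-step fixation (final 0.05% Triton X-100, 1% formaldehyde, 1 ug/ml Hoechst) and counted on 4× images, and relative viability is the treated-to-vehicle nuclei ratio, as the median of duplicate plates.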

[2] = compound: C1/C(=C\C2=CC=CS2)/C(=O)/C(=C/C3=CC=CS3)/C1 + Cc1nc(NC(=O)N2CCC[C@H]2C(N)=O)sc1-c1ccnc(C(C)(C)C(F)(F)F)c1 [Alpelisib] (partner 2 µM)
How it was run: as §1

[3] = compound: C1/C(=C\C2=CC=CS2)/C(=O)/C(=C/C3=CC=CS3)/C1 + C[C@]1(O)C[C@@H](c2nc(-c3ccc4ccc(-c5ccccc5)nc4c3)c3c(N)nccn32)C1 [Linsitinib] (partner 1 µM)
How it was run: as §1

[4] = compound: C1/C(=C\C2=CC=CS2)/C(=O)/C(=C/C3=CC=CS3)/C1 + O=C(c1cc(Cc2n[nH]c(=O)c3ccccc23)ccc1F)N1CCN(C(=O)C2CC2)CC1 [Olaparib] (partner 8 µM)
How it was run: as §1

Cell Line: NCI-H2347
- relative viability ([1]; first compound 0.2 µM): 0.717
- relative viability ([1]; first compound 0.6325 µM): 0.771
- relative viability ([1]; first compound 2 µM): 0.7
- relative viability ([1]; first compound 6.325 µM): 0.689
- relative viability ([1]; first compound 20 µM): 0.606
- relative viability ([2]; first compound 0.2 µM): 1.1
- relative viability ([2]; first compound 0.6325 µM): 1.07
- relative viability ([2]; first compound 2 µM): 0.963
- relative viability ([2]; first compound 6.325 µM): 0.952
- relative viability ([2]; first compound 20 µM): 1.15
- relative viability ([3]; first compound 0.2 µM): 0.918
- relative viability ([3]; first compound 0.6325 µM): 0.953
- relative viability ([3]; first compound 2 µM): 0.922
- relative viability ([3]; first compound 6.325 µM): 0.891
- relative viability ([3]; first compound 20 µM): 0.938
- relative viability ([4]; first compound 0.2 µM): 0.623
- relative viability ([4]; first compound 0.6325 µM): 0.581
- relative viability ([4]; first compound 2 µM): 0.593
- relative viability ([4]; first compound 6.325 µM): 0.521
- relative viability ([4]; first compound 20 µM): 0.63

Cell Line: NCI-H2405
- relative viability ([1]; first compound 0.2 µM): 0.904
- relative viability ([1]; first compound 0.6325 µM): 0.851
- relative viability ([1]; first compound 2 µM): 0.851
- relative viability ([1]; first compound 6.325 µM): 0.798
- relative viability ([1]; first compound 20 µM): 0.839
- relative viability ([2]; first compound 0.2 µM): 0.945
- relative viability ([2]; first compound 0.6325 µM): 0.766
- relative viability ([2]; first compound 2 µM): 0.79
- relative viability ([2]; first compound 6.325 µM): 0.797
- relative viability ([2]; first compound 20 µM): 0.87
- relative viability ([3]; first compound 0.2 µM): 0.992
- relative viability ([3]; first compound 0.6325 µM): 1.09
- relative viability ([3]; first compound 2 µM): 1.03
- relative viability ([3]; first compound 6.325 µM): 0.803
- relative viability ([3]; first compound 20 µM): 1.01
- relative viability ([4]; first compound 0.2 µM): 0.905
- relative viability ([4]; first compound 0.6325 µM): 0.844
- relative viability ([4]; first compound 2 µM): 1.04
- relative viability ([4]; first compound 6.325 µM): 0.789
- relative viability ([4]; first compound 20 µM): 0.867

Cell Line: NCI-H3122
- relative viability ([1]; first compound 0.2 µM): 0.247
- relative viability ([1]; first compound 0.6325 µM): 0.273
- relative viability ([1]; first compound 2 µM): 0.279
- relative viability ([1]; first compound 6.325 µM): 0.215
- relative viability ([1]; first compound 20 µM): 0.272
- relative viability ([2]; first compound 0.2 µM): 0.887
- relative viability ([2]; first compound 0.6325 µM): 0.785
- relative viability ([2]; first compound 2 µM): 0.876
- relative viability ([2]; first compound 6.325 µM): 0.488
- relative viability ([2]; first compound 20 µM): 0.891
- relative viability ([3]; first compound 0.2 µM): 1.01
- relative viability ([3]; first compound 0.6325 µM): 1.06
- relative viability ([3]; first compound 2 µM): 1.09
- relative viability ([3]; first compound 6.325 µM): 0.919
- relative viability ([3]; first compound 20 µM): 0.97
- relative viability ([4]; first compound 0.2 µM): 0.655
- relative viability ([4]; first compound 0.6325 µM): 0.645
- relative viability ([4]; first compound 2 µM): 0.648
- relative viability ([4]; first compound 6.325 µM): 0.537
- relative viability ([4]; first compound 20 µM): 0.578

Cell Line: PC-3 [JPC-3]
- relative viability ([1]; first compound 0.2 µM): 0.978
- relative viability ([1]; first compound 0.6325 µM): 0.997
- relative viability ([1]; first compound 2 µM): 0.944
- relative viability ([1]; first compound 6.325 µM): 0.859
- relative viability ([1]; first compound 20 µM): 1
- relative viability ([2]; first compound 0.2 µM): 0.994
- relative viability ([2]; first compound 0.6325 µM): 0.995
- relative viability ([2]; first compound 2 µM): 0.998
- relative viability ([2]; first compound 6.325 µM): 0.97
- relative viability ([2]; first compound 20 µM): 1.05
- relative viability ([3]; first compound 0.2 µM): 1.1
- relative viability ([3]; first compound 0.6325 µM): 0.956
- relative viability ([3]; first compound 2 µM): 0.949
- relative viability ([3]; first compound 6.325 µM): 0.891
- relative viability ([3]; first compound 20 µM): 0.949
- relative viability ([4]; first compound 0.6325 µM): 1.22
- relative viability ([4]; first compound 2 µM): 1.09
- relative viability ([4]; first compound 6.325 µM): 0.762
- relative viability ([4]; first compound 20 µM): 1.19

Cell Line: PC-14
- relative viability ([1]; first compound 0.2 µM): 0.995
- relative viability ([1]; first compound 0.6325 µM): 0.838
- relative viability ([1]; first compound 2 µM): 0.819
- relative viability ([1]; first compound 6.325 µM): 0.725
- relative viability ([1]; first compound 20 µM): 0.956
- relative viability ([2]; first compound 0.2 µM): 0.95
- relative viability ([2]; first compound 0.6325 µM): 0.898
- relative viability ([2]; first compound 2 µM): 0.889
- relative viability ([2]; first compound 6.325 µM): 0.676
- relative viability ([2]; first compound 20 µM): 0.995
- relative viability ([3]; first compound 0.2 µM): 0.96
- relative viability ([3]; first compound 0.6325 µM): 0.919
- relative viability ([3]; first compound 2 µM): 0.922
- relative viability ([3]; first compound 6.325 µM): 0.829
- relative viability ([3]; first compound 20 µM): 0.981
- relative viability ([4]; first compound 0.2 µM): 0.289
- relative viability ([4]; first compound 0.6325 µM): 0.28
- relative viability ([4]; first compound 2 µM): 0.239
- relative viability ([4]; first compound 6.325 µM): 0.192
- relative viability ([4]; first compound 20 µM): 0.31

Cell Line: RERF-LC-KJ
- relative viability ([1]; first compound 0.2 µM): 0.794
- relative viability ([1]; first compound 0.6325 µM): 0.843
- relative viability ([1]; first compound 2 µM): 0.832
- relative viability ([1]; first compound 6.325 µM): 0.763
- relative viability ([1]; first compound 20 µM): 0.754
- relative viability ([2]; first compound 0.2 µM): 0.73
- relative viability ([2]; first compound 0.6325 µM): 0.89
- relative viability ([2]; first compound 2 µM): 0.748
- relative viability ([2]; first compound 6.325 µM): 0.705
- relative viability ([2]; first compound 20 µM): 0.815
- relative viability ([3]; first compound 0.2 µM): 0.903
- relative viability ([3]; first compound 0.6325 µM): 0.922
- relative viability ([3]; first compound 2 µM): 0.801
- relative viability ([3]; first compound 6.325 µM): 0.812
- relative viability ([3]; first compound 20 µM): 0.794
- relative viability ([4]; first compound 0.2 µM): 0.948
- relative viability ([4]; first compound 0.6325 µM): 0.956
- relative viability ([4]; first compound 2 µM): 0.869
- relative viability ([4]; first compound 6.325 µM): 0.724
- relative viability ([4]; first compound 20 µM): 0.637

Cell Line: SK-LU-1
- relative viability ([1]; first compound 0.2 µM): 1.12
- relative viability ([1]; first compound 0.6325 µM): 1.03
- relative viability ([1]; first compound 2 µM): 0.925
- relative viability ([1]; first compound 6.325 µM): 0.763
- relative viability ([1]; first compound 20 µM): 0.923
- relative viability ([2]; first compound 0.2 µM): 1.18
- relative viability ([2]; first compound 0.6325 µM): 1.07
- relative viability ([2]; first compound 2 µM): 1.11
- relative viability ([2]; first compound 6.325 µM): 0.817
- relative viability ([2]; first compound 20 µM): 1.06
- relative viability ([3]; first compound 0.2 µM): 1.04
- relative viability ([3]; first compound 0.6325 µM): 1.08
- relative viability ([3]; first compound 2 µM): 1.16
- relative viability ([3]; first compound 6.325 µM): 0.984
- relative viability ([3]; first compound 20 µM): 1.24
- relative viability ([4]; first compound 0.2 µM): 0.427
- relative viability ([4]; first compound 0.6325 µM): 0.34
- relative viability ([4]; first compound 2 µM): 0.541
- relative viability ([4]; first compound 6.325 µM): 0.443
- relative viability ([4]; first compound 20 µM): 0.514

Cell Line: SK-MES-1
- relative viability ([1]; first compound 0.2 µM): 0.978
- relative viability ([1]; first compound 0.6325 µM): 1.04
- relative viability ([1]; first compound 2 µM): 0.903
- relative viability ([1]; first compound 6.325 µM): 0.879
- relative viability ([1]; first compound 20 µM): 0.917
- relative viability ([2]; first compound 0.2 µM): 1.04
- relative viability ([2]; first compound 0.6325 µM): 0.912
- relative viability ([2]; first compound 2 µM): 0.879
- relative viability ([2]; first compound 6.325 µM): 0.854
- relative viability ([2]; first compound 20 µM): 0.798
- relative viability ([3]; first compound 0.2 µM): 1.05
- relative viability ([3]; first compound 0.6325 µM): 1.1
- relative viability ([3]; first compound 2 µM): 0.992
- relative viability ([3]; first compound 6.325 µM): 0.818
- relative viability ([3]; first compound 20 µM): 0.982
- relative viability ([4]; first compound 0.2 µM): 0.792
- relative viability ([4]; first compound 0.6325 µM): 0.781
- relative viability ([4]; first compound 2 µM): 0.696
- relative viability ([4]; first compound 6.325 µM): 0.669
- relative viability ([4]; first compound 20 µM): 0.729

Cell Line: SW 1573
- relative viability ([1]; first compound 0.2 µM): 0.778
- relative viability ([1]; first compound 0.6325 µM): 0.693
- relative viability ([1]; first compound 2 µM): 0.889
- relative viability ([1]; first compound 6.325 µM): 0.749
- relative viability ([1]; first compound 20 µM): 0.895
- relative viability ([2]; first compound 0.2 µM): 0.785
- relative viability ([2]; first compound 0.6325 µM): 0.905
- relative viability ([2]; first compound 2 µM): 0.838
- relative viability ([2]; first compound 6.325 µM): 0.547
- relative viability ([2]; first compound 20 µM): 0.757
- relative viability ([3]; first compound 0.2 µM): 0.765
- relative viability ([3]; first compound 0.6325 µM): 0.839
- relative viability ([3]; first compound 2 µM): 0.959
- relative viability ([3]; first compound 6.325 µM): 0.744
- relative viability ([3]; first compound 20 µM): 0.829
- relative viability ([4]; first compound 0.2 µM): 0.394
- relative viability ([4]; first compound 0.6325 µM): 0.455
- relative viability ([4]; first compound 2 µM): 0.556
- relative viability ([4]; first compound 6.325 µM): 0.435
- relative viability ([4]; first compound 20 µM): 0.248
